± gives the expanded uncertainty stated by the source.
Test: mn = molality of the nth substance listed, in mol/kg
Conditions: Liquid, Vibrating tube method

[I-].[K+] [potassium iodide] + O
mass density [kg/m3]
Conditions | 283.15 K | 298.12 K | 323.07 K | 348.04 K | 372.99 K | 397.97 K | 422.94 K | 447.94 K | 472.96 K
1050 kPa, m1 = 0.669 | 1078.98 ± 0.14 | 1074.75 ± 0.15 | 1064.04 ± 0.14 | 1049.72 ± 0.14 | 1032.6 ± 0.13 | 1012.71 ± 0.13 | 990.31 ± 0.13 | 965.35 ± 0.14 | –
1050 kPa, m1 = 0.9 | – | 1100.27 ± 0.15 | 1088.99 ± 0.15 | 1074.24 ± 0.14 | 1056.8 ± 0.14 | 1036.96 ± 0.13 | 1014.85 ± 0.13 | 990.56 ± 0.13 | –
1050 kPa, m1 = 1.063 | 1122.95 ± 0.16 | 1117.9 ± 0.16 | 1106.19 ± 0.15 | 1091.2 ± 0.14 | 1073.46 ± 0.14 | 1053.24 ± 0.13 | 1030.64 ± 0.13 | 1005.63 ± 0.12 | –
10020 kPa, m1 = 0.669 | 1083.16 ± 0.17 | 1078.81 ± 0.17 | 1067.95 ± 0.16 | 1053.73 ± 0.15 | 1036.79 ± 0.14 | 1017.19 ± 0.13 | 995.34 ± 0.13 | 970.94 ± 0.15 | 944.19 ± 0.17
10020 kPa, m1 = 0.9 | – | 1104.27 ± 0.19 | 1092.94 ± 0.18 | 1078.29 ± 0.17 | 1061.02 ± 0.16 | 1041.47 ± 0.14 | 1019.62 ± 0.13 | 996.18 ± 0.13 | –
10020 kPa, m1 = 1.063 | 1127.11 ± 0.21 | 1121.98 ± 0.2 | 1110.17 ± 0.19 | 1095.23 ± 0.18 | 1077.72 ± 0.17 | 1057.79 ± 0.15 | 1035.74 ± 0.14 | 1011.23 ± 0.13 | 984.84 ± 0.14
19970 kPa, m1 = 0.669 | 1087.75 ± 0.21 | 1083.04 ± 0.21 | 1072.19 ± 0.19 | 1057.99 ± 0.17 | 1041.3 ± 0.16 | 1022.06 ± 0.14 | 1000.61 ± 0.13 | 976.95 ± 0.15 | 950.96 ± 0.19
19970 kPa, m1 = 0.9 | – | 1108.67 ± 0.24 | 1097.21 ± 0.22 | 1082.62 ± 0.2 | 1065.55 ± 0.18 | 1046.32 ± 0.16 | 1024.97 ± 0.14 | 1002.22 ± 0.13 | –
19970 kPa, m1 = 1.063 | 1131.7 ± 0.27 | 1126.32 ± 0.26 | 1114.52 ± 0.24 | 1099.65 ± 0.22 | 1082.29 ± 0.2 | 1062.77 ± 0.18 | 1041.07 ± 0.16 | 1017.26 ± 0.13 | 991.38 ± 0.14
29900 kPa, m1 = 0.669 | 1092.18 ± 0.26 | 1087.37 ± 0.25 | 1076.42 ± 0.23 | 1062.23 ± 0.2 | 1045.73 ± 0.18 | 1026.71 ± 0.15 | 1005.73 ± 0.13 | 982.65 ± 0.15 | 957.4 ± 0.2
29900 kPa, m1 = 0.9 | – | 1112.93 ± 0.3 | 1101.41 ± 0.27 | 1086.89 ± 0.25 | 1070.01 ± 0.22 | 1050.95 ± 0.19 | 1030.16 ± 0.16 | 1007.94 ± 0.14 | –
29900 kPa, m1 = 1.063 | 1136.2 ± 0.34 | 1130.67 ± 0.33 | 1118.76 ± 0.3 | 1103.95 ± 0.28 | 1086.83 ± 0.25 | 1067.47 ± 0.21 | 1046.25 ± 0.18 | 1022.96 ± 0.15 | 997.97 ± 0.13
39830 kPa, m1 = 0.669 | 1096.51 ± 0.31 | 1091.56 ± 0.3 | 1080.45 ± 0.27 | 1066.38 ± 0.24 | 1050.01 ± 0.21 | 1031.29 ± 0.17 | 1010.72 ± 0.14 | 988.1 ± 0.15 | 963.57 ± 0.2
39830 kPa, m1 = 0.9 | – | 1117.15 ± 0.36 | 1105.46 ± 0.33 | 1091.06 ± 0.3 | 1074.32 ± 0.26 | 1055.56 ± 0.22 | 1035.28 ± 0.18 | 1013.36 ± 0.15 | –
39830 kPa, m1 = 1.063 | 1140.54 ± 0.41 | 1134.96 ± 0.4 | 1122.89 ± 0.37 | 1108.16 ± 0.34 | 1091.17 ± 0.3 | 1072.16 ± 0.25 | 1051.3 ± 0.21 | 1028.47 ± 0.17 | 1004.2 ± 0.13
49760 kPa, m1 = 0.669 | 1100.74 ± 0.36 | 1095.69 ± 0.35 | 1084.42 ± 0.32 | 1070.32 ± 0.28 | 1054.18 ± 0.24 | 1035.78 ± 0.19 | 1015.55 ± 0.15 | 993.34 ± 0.14 | 969.44 ± 0.2
49760 kPa, m1 = 0.9 | – | 1121.3 ± 0.43 | 1109.41 ± 0.39 | 1095.03 ± 0.35 | 1078.51 ± 0.3 | 1060.02 ± 0.25 | 1040.03 ± 0.21 | 1018.68 ± 0.16 | –
49760 kPa, m1 = 1.063 | 1144.78 ± 0.49 | 1139.11 ± 0.48 | 1126.88 ± 0.44 | 1112.21 ± 0.4 | 1095.44 ± 0.35 | 1076.71 ± 0.3 | 1056.19 ± 0.25 | 1033.81 ± 0.19 | 1010.14 ± 0.15
59680 kPa, m1 = 0.669 | 1104.92 ± 0.43 | 1099.67 ± 0.41 | 1088.3 ± 0.37 | 1074.35 ± 0.33 | 1058.24 ± 0.27 | 1040.1 ± 0.22 | 1020.17 ± 0.17 | 998.49 ± 0.14 | 975.11 ± 0.2
59680 kPa, m1 = 0.9 | – | 1125.31 ± 0.5 | 1113.37 ± 0.46 | 1099.04 ± 0.41 | 1082.5 ± 0.35 | 1064.32 ± 0.3 | 1044.78 ± 0.24 | 1023.8 ± 0.18 | –
59680 kPa, m1 = 1.063 | 1149.02 ± 0.58 | 1143.14 ± 0.56 | 1130.86 ± 0.52 | 1116.3 ± 0.47 | 1099.61 ± 0.41 | 1081.09 ± 0.35 | 1060.87 ± 0.29 | 1038.97 ± 0.22 | 1015.81 ± 0.16
68120 kPa, m1 = 0.669 | 1108.52 ± 0.48 | 1103 ± 0.46 | 1091.53 ± 0.42 | 1077.66 ± 0.37 | 1061.64 ± 0.31 | 1043.65 ± 0.25 | 1024 ± 0.19 | 1002.64 ± 0.14 | 979.68 ± 0.19
68120 kPa, m1 = 0.9 | – | 1128.62 ± 0.56 | 1116.58 ± 0.51 | 1102.03 ± 0.46 | 1085.89 ± 0.4 | 1067.94 ± 0.33 | 1048.68 ± 0.27 | 1027.98 ± 0.2 | –
68120 kPa, m1 = 1.063 | 1152.59 ± 0.65 | 1146.49 ± 0.63 | 1134.11 ± 0.58 | 1119.62 ± 0.53 | 1103.03 ± 0.46 | 1084.7 ± 0.4 | 1064.81 ± 0.32 | 1043.19 ± 0.25 | 1020.4 ± 0.18

Source: the NIST ThermoML archive (doi:10.1021/je2013704)
